These results are taken from patent US6048865A, “N^6 -substituted-adenosine-5'-uronamides as adenosine receptor modulator” (priority 1998, dated 2000).

Like-named read-outs stand apart in the source and are kept apart here.

Assay [1] concerns the target T1, rat A3 adenosine receptor (Rattus norvegicus, UniProt P28647).
T1 sequence (P28647 1-320): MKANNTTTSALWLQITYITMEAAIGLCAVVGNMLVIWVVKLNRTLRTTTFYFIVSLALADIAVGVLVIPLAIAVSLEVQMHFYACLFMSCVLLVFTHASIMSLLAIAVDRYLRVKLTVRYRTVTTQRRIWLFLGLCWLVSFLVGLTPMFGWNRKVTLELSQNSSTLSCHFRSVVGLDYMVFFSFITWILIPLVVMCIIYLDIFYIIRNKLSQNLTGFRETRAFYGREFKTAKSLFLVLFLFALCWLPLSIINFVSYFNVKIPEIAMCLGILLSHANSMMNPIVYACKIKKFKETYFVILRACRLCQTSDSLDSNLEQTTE
Experimental: (§1) Procedures for preparing rat brain membranes and Chinese hamster ovary (CHO) cell membranes were as reported^30, 38, 44. For binding experients, membrane homogenates were frozen and stored at -20° C. for greater than 2 months. Adenosine deaminase (ADA) was purchased from Boehringer Mannheim (Indianapolis, Ind.).
(§2) Inhibitors were routinely dissolved in DMSO. […] Incubations were carried out in duplicate for 1 h at 37° C., and were terminated by rapid filtration over Whatman GF/B filters using a Brandell cell harvester (Brandell, Gaithersburg, Md.). Tubes were washed three times with 3 mL of buffer. Radioactivity was determined in a Beckman gamma 5500B γ-counter.
(§3) Nonspecific binding was determined in the presence of 200 μM NECA. […] Additional deaminase was not added during incubation with the radioligand.

Assay [2] has as its target T1, rat A3 adenosine receptor. As to conditions: for A1/A3: ratio of Ki (A1) to Ki (A3); for A1/A3 / A2A/A3: rat; for A2A/A3: ratio of Ki (A2A) to Ki (A3); for affinity and selectivity at A3 adenosine receptors: vs. A1 and A2 receptors.
Experimental: as §1, §2, §3
Assay [3] concerns the target T2, rat brain A2A adenosine receptor (Rattus norvegicus, UniProt P30543).
T2 construct: A2A receptors for rat striatal membranes; from tissue; host or cells: rat striatal membranes
The assay is described as follows: Displacement of specific [3H]CGS 21680 binding in rat striatal membranes.
Experimental: For binding experients, membrane homogenates were frozen and stored at -20° C. for greater than 2 months. Adenosine deaminase (ADA) was purchased from Boehringer Mannheim (Indianapolis, Ind.).
as §3

The target in assay [4] is T3, rat brain A1 adenosine receptor (Rattus norvegicus, UniProt P25099).
T3 sequence (P25099 1-326): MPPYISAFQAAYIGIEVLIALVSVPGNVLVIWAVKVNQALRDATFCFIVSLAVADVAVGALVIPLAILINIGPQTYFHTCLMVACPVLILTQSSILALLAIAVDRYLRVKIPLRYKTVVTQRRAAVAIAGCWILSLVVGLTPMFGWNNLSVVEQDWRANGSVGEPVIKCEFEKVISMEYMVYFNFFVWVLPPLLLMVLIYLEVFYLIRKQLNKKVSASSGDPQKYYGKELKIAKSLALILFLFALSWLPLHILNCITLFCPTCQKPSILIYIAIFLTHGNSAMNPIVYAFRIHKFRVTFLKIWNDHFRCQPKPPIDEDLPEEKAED
Experimental: (§4) Procedures for preparing rat brain membranes and Chinese hamster ovary (CHO) cell membranes were as reported^30, 38, 44. For binding experients, membrane homogenates were frozen and stored at -20° C. for greater than 2 months.
as §3

Assay [5] concerns the target T3, rat brain A1 adenosine receptor. The assay is described as follows: Displacement of specific [3H]R-PIA binding in rat brain (cortical) membranes. The note with it: read-out: Ki (A1).
Experimental: as §4, §3
Assay [6] has as its target T4, rat A3 receptor (Rattus norvegicus, UniProt P28647).
T4 sequence (P28647 1-320): T1 sequence (P28647 1-320)
The experiment in a line: Binding of [35S]GTP-γ-S to rat RBL-2H3 mast cell membranes. The assay is classed as biochemical. The note with it: FIG. 1, rat RBL-2H3 mast cell membranes. Here is the method: The binding for [^35 S]GTP-y-S (Ameersham, Chicago Ill., specific activity 1275 Ci/mmol) was carried out using rat RBL-2H3 mast cell membranes by the general method of Lorenzen et al.^47 Membranes were suspended in a buffer containing 50 mM Tris, 3 units/mL adenosine deaminase, 100 mM NaCl, and 10 mM MgCl2 (pH 7.4) and a protein concentration of 1 to 10 μg per tube. The membrane suspension was preincubated with […], R-PIA and/or riboflavin in a final volume of 125 μL buffer at 30° C. for 60 min and then transferred to ice for 20 min. [^35 S]GTP-γy-S was added to a final concentration of 0.1 nM in a total volume of 500 μL and the mixture was incubated for 30 min at 30° C. Non-specific binding was determined in the presence of 10 μM GTP-γ-S (Sigma, St. Louis Mo.). Incubation of the reaction mixture was terminated by filtration over a GF/B glass filter using a Brandell cell harvester and washed with the same buffer.
The assay involved the agonist-induced inhibition of binding of guanine nucleotide to rat RBL-2H3 mast cell membranes, which contain a high density of A3 receptors.

Assay [7] deals with T3, rat brain A1 adenosine receptor. The assay is described as follows: biochemical.
Experimental: as §4, §3
Assay [8] relates to A3 receptor. As to conditions: background, cited from earlier work.
Setting [9] is: rat striatal membranes, [3H]CGS 21680, Ki ± SEM, n = 3-6.
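Wherever A1/A3 is given: radioligand binding on membrane homogenates, 1 h incubation at 37 °C in duplicate, gamma counting of filter-bound radioactivity, nonspecific binding defined using 200 µM NECA.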
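Wherever A2A/A3 is given: radioligand binding on membrane homogenates, 1 h incubation at 37 °C in duplicate, gamma counting of filter-bound radioactivity, nonspecific binding defined using 200 µM NECA.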

T2 sequence (P30543 whole entry): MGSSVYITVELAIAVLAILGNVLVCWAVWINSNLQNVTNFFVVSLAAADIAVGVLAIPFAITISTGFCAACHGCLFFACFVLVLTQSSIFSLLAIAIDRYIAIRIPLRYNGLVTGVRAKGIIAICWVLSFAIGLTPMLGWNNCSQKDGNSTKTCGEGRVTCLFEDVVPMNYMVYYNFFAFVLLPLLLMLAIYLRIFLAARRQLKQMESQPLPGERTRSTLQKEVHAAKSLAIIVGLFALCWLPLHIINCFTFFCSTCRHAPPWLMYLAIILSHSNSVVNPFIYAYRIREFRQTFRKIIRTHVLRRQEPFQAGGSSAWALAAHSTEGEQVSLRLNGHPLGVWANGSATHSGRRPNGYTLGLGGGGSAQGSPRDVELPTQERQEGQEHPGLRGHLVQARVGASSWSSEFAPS

For `CCNC(=O)[C@H]1O[C@@H](n2cnc3c(NC(=O)c4ccc(OC)cc4)ncnc32)[C@H](O)[C@@H]1O` [Compound 3c], the Ki in assay [1] came out at 837 ± 142 nM; in assay [3] (setting [9]), 237 ± 46 nM; in assay [4], 86.4 ± 14.2 nM. In addition, in assay [2], the A1/A3 amounted to 0.10. The A2A/A3 in assay [2] was 0.28.

On to `CCNC(=O)[C@H]1O[C@@H](n2cnc3c(NNC(=O)c4ccc(Cl)cc4)ncnc32)[C@H](O)[C@@H]1O` [Compound 3d, N^6-(4-chlorophenyl-carbonylamino)-adenosine-5'-N-ethyluronamide], for which the A1/A3 in assay [2] turned out to be 1.55. For the same compound, the A2A/A3 in assay [2] is listed as 2.59. Also, the values for the Ki in assay [2] (read-out: Ki (A3)), in assay [3] and in assay [5] were 754 ± 132 nM, 1960 ± 300 nM and 1170 ± 220 nM, respectively.

Consider `CCNC(=O)[C@H]1O[C@@H](n2cnc3c(N(C(=O)Nc4ccc(Cl)cn4)C(=O)Nc4ccc(Cl)cn4)ncnc32)[C@H](O)[C@@H]1O` [Compound 3o, N^6-bis-(5-chloro-pyridin-2-yl-carbamoyl)-adenosine-5'-N-ethyluronamide], for which the values for the Ki in assay [1], in assay [3] (setting [9]) and in assay [4] were 5700 ± 100 nM, 799 ± 191 nM and 761 ± 187 nM, respectively. Moreover, in assay [2], the A1/A3 amounted to 0.13. Besides, the A2A/A3 in assay [2] worked out at 0.14.

For `CCNC(=O)[C@H]1O[C@@H](n2cnc3c(NC(=O)N[C@H](C)c4ccccc4)ncnc32)[C@H](O)[C@@H]1O` [Compound 3i, N^6-((R)-α-phenylethylcarbamoyl)-adenosine-5'-N-ethyluronamide], the inhibition constant (Ki) in assay [1] is 16.3 ± 3.7 nM; in assay [3] (setting [9]), 279 ± 171 nM; in assay [4], 433 ± 171 nM. Also, in assay [2], the A1/A3 stood at 26.5. For the same compound, the A2A/A3 in assay [2] is on record as 17.1.

Take `CCNC(=O)[C@H]1O[C@@H](n2cnc3c(NC(=O)Cc4ccc(Cl)cc4Cl)ncnc32)[C@H](O)[C@@H]1O` [Compound 3b, N^6-(2,4-dichlorobenzyl-carbonylamino)-adenosine-5'-N-ethyluronamide]: the figures for the Ki in assay [1], in assay [3] and in assay [4] were 167 ± 7 nM, 26.6 ± 8.8 nM and 16 ± 3.3 nM, respectively. Moreover, in assay [2], the A1/A3 is 0.095. Besides, the A2A/A3 in assay [2] is recorded as 0.16.

In turn, `CCNC(=O)[C@H]1O[C@@H](n2cnc3c(NC(=O)Nc4ccc(C(C)=O)cc4)ncnc32)[C@H](O)[C@@H]1O` [Compound 3h, N^6-(4-acetyl-phenylcarbamoyl)-adenosine-5'-N-ethyluronamide] came in with an inhibition constant Ki in assay [1] of 20.9 ± 7.51 nM. Moreover, in assay [2], the Ki lay in the range of 9.7 to 107 nM; the A1/A3 was determined as 3.47; the A2A/A3 was 50.2; the “affinity and selectivity at A3 adenosine receptors” value (“affinity and selectivity” below) was “relatively high affinity and selectivity at A3 adenosine receptors”. For the same compound, in assay [3] (setting [9]), the inhibition constant (Ki) was found to be 1050 ± 270 nM. Further, the Ki in assay [4] was 72.7 ± 11.8 nM.

Consider `CCNC(=O)[C@H]1O[C@@H](n2cnc3c(N(C(=O)Nc4ccc([N+](=O)[O-])cc4)C(=O)Nc4ccc([N+](=O)[O-])cc4)ncnc32)[C@H](O)[C@@H]1O` [Compound 3n, N^6-bis-(4-nitrophenylcarbamoyl)-adenosine-5'-N-ethyluronamide], for which the inhibition constant (Ki) in assay [3] (setting [9]) worked out at 2530 ± 200 nM; in assay [5] it was 89.1 ± 8.8 nM.

For the compound `CCNC(=O)[C@H]1O[C@@H](n2cnc3c(NC(=O)Nc4cc(C)on4)ncnc32)[C@H](O)[C@@H]1O` [Compound 3k, N^6-(5-methyl-isoxazol-3-yl-carbamoyl)-adenosine-5'-N-ethyluronamide], the Ki in assay [1] was found to be 532 ± 240 nM; in assay [3] (setting [9]) it was 884 ± 232 nM; in assay [4] it was 146 ± 39 nM. In addition, the A1/A3 in assay [2] came out at 0.27. The A2A/A3 in assay [2] came to 1.66.

On to `CNC(=O)[C@H]1O[C@@H](n2cnc3c(NCc4cccc(I)c4)nc(Cl)nc32)[C@H](O)[C@@H]1O` [Cl-IB-MECA, 2-chloro-N^6-(3-iodobenzyl)adenosine-5'-N-methyluronamide, reference compound], for which the “effect on binding of [35S]GTP-γ-S” value in assay [6] is “increased binding of [^35 S]GTP-γ-S in a dose dependent manner”.

As for `CCNC(=O)[C@H]1O[C@@H](n2cnc3c(NC(=O)c4ccc(-c5ccccc5)cc4)ncnc32)[C@H](O)[C@@H]1O` [Compound 3a], the Ki was determined as 979 ± 22 nM in assay [1], 3580 ± 850 nM in assay [3] (setting [9]) and 5.92 ± 1.04 nM in assay [4]. The A1/A3 in assay [2] was found to be 0.006. In addition, the A2A/A3 in assay [2] came to 3.65.

With `CCNC(=O)[C@H]1O[C@@H](n2cnc3c(NC(=O)Nc4nncs4)ncnc32)[C@H](O)[C@@H]1O` [Compound 3l, N^6-(1,3,4-thiadiazol-2-yl-carbamoyl)-adenosine-5'-N-ethyluronamide], the figures for the Ki in assay [1], in assay [3] (setting [9]) and in assay [4] were 5550 ± 2800 nM, 917 ± 254 nM and 208 ± 42 nM, respectively. Also, the A1/A3 in assay [2] is given as 0.037. Further, the A2A/A3 in assay [2] is on record as 0.16.

Consider `CCNC(=O)[C@H]1O[C@@H](n2cnc3c(NC(=O)N[C@@H](C)c4ccccc4)ncnc32)[C@H](O)[C@@H]1O` [Compound 3j, N^6-((S)-α-phenylethylcarbamoyl)-adenosine-5'-N-ethyluronamide], for which the Ki in assay [1] was determined as 319 ± 134 nM; in assay [3] (setting [9]), 2970 ± 930 nM; in assay [4] it was 537 ± 33 nM. In assay [2], the A1/A3 is on record as 1.68. Besides, the A2A/A3 in assay [2] is given as 9.3. In addition, in assay [2], the “affinity and selectivity” value is “relatively high affinity and selectivity at A3 adenosine receptors”.

As for `CCNC(=O)[C@H]1O[C@@H](n2cnc3c(NC(=O)c4ccccc4)ncnc32)[C@H](O)[C@@H]1O` [Compound 3e], the Ki in assay [1] is 824 ± 126 nM; in assay [3] (setting [9]), 670 ± 211 nM; in assay [4] it was 252 ± 52 nM. Besides, the A1/A3 in assay [2] was 0.30. In addition, the A2A/A3 in assay [2] was 0.81.

With `CCCOc1ccc(NC(=O)Nc2ncnc3c2ncn3[C@@H]2O[C@H](C(=O)NCC)[C@@H](O)[C@H]2O)cc1` [Compound 3m, N^6-(4-n-propoxy-phenylcarbamoyl)-adenosine-5'-N-ethyluronamide], the inhibition constant (Ki) in assay [1] stood at 107 ± 34 nM. Moreover, in assay [2], the inhibition constant Ki fell in the range of 9.7 to 107 nM; the A1/A3 turned out to be 2.3; the A2A/A3 was determined as 2.4; the “affinity and selectivity” value is “relatively high affinity and selectivity at A3 adenosine receptors”. Besides, the inhibition constant Ki in assay [7] is 257 ± 43 nM.

Consider `CNC(=O)[C@H]1O[C@@H](n2cnc3c(NCc4cccc(I)c4)ncnc32)[C@H](O)[C@@H]1O` [IB-MECA, N^6-(3-iodobenzyl)adenosine-5'-N-methyluronamide], for which the behavioral effect result in assay [8] was “induces behavioral depression”. Besides, in assay [8] (chronic administration), the “protection against cerebral ischemia” value is given as “protects against cerebral ischemia”.

As to `CNC(=O)[C@H]1O[C@@H](n2cnc3c(NCc4ccc(N)c(I)c4)ncnc32)[C@H](O)[C@@H]1O` [I-AB-MECA, N^6-(4-amino-3-iodobenzyl)adenosine-5'-N-methyluronamide, reference compound], the “effect on binding of [35S]GTP-γ-S” value in assay [6] was “increased binding of [^35 S]GTP-γ-S in a dose dependent manner”.

As to `CCNC(=O)[C@H]1O[C@@H](n2cnc3c(NC(=O)NCc4ccccc4)ncnc32)[C@H](O)[C@@H]1O` [Compound 3f, N^6-(benzylcarbamoylamino)-adenosine-5'-N-ethyluronamide], the Ki came to 38.3 ± 6.4 nM in assay [1], 1790 ± 230 nM in assay [3] (setting [9]) and 171 ± 15 nM in assay [4]. The A1/A3 in assay [2] is given as 4.46. Further, the A2A/A3 in assay [2] was 46.8.

As a reminder, the Ki is the equilibrium dissociation constant of an inhibitor or competing ligand from its target.
